Each block holds one compound with its values, some of them ahead of it.
Assays:
[1] = Urinary excretion after single oral dose of Cogni.Q; format: in vivo, human; conditions: pooled 0-24 h urine; for number of subjects with analyte detected in urine: of 20 subjects
Procedure: Plasma was prepared by centrifuging the heparinized blood at 1000 g for 15 minutes at room temperature. Urine samples (40mL) were collected within time spans of 0–4, 4–8, 8–12 and 12–24 hours (total volume of urine was recorded). All plasma and urine samples were put on dry ice immediately and then stored at -80°C freezer until analysis.
Urine samples from each subject collected from 0 to 24 hours post-dose were pooled proportional to the volume of urine in each sampling period. Urine sample (200μL) was spiked with 5 μL of prednisolone solution (10 ng/μL, IS), and extracted with 1500 μL of ethyl acetate. The ethyl acetate fraction was recovered and dried using a SpeedVac. The dried residue was reconstituted in 50 μL of methanol for UHPLC-MS/MS analysis and 5 μL of the sample was injected.
Urine samples from each subject were pooled proportional to the amount of urine in each sampling period (hours 0–4, 4–8, 8–12 and 12–24). DA was detected in its original form in the urine of 14 subjects whereas D was only detected in the urine of 3 subjects. The levels of detectable D and DA ranged from 0.06∼1.74 nmol/L. DOH was detected in the urine of all subjects with a mean concentration of 289 nmol/L. These extractable unmodified pyranocoumarin forms accounted for the 24-hour cumulative excretion of less than 1% of the ingested pyranocoumarins. Further work is needed to estimate the extent of additional metabolites (free and conjugated forms) in urine and plasma.

[2] = set-up: method as in PMID 23364885; conditions: rat n = 3, oral 33.5 mg/kg D and 21.5 mg/kg DA, cited from earlier work; for Cmax: read-out: C max, nmol/, Mean (SD)

Structure (SMILES): CC(C)=CC(=O)O[C@H]1Cc2cc3ccc(=O)oc3cc2OC1(C)C [D, decursin]
number of subjects with analyte detected in urine [1]: 3 subjects
AUC0–48h, h nmol/L, Mean (SD) [2]: 36.0 (14.3) h nmol/L
T max, h, median (range) [2]: 1 (0.5–2) h
Cmax [2]: 7.3 nM

number of subjects with analyte detected in urine [1]: 14 subjects
Structure (SMILES): C/C=C(/C)C(=O)O[C@H]1Cc2cc3ccc(=O)oc3cc2OC1(C)C [DA, decursinol angelate]
AUC0–48h, h nmol/L, Mean (SD) [2]: 64.3 (8.8) h nmol/L
T max, h, median (range) [2]: 1 (0.5–2) h
Cmax [2]: 7.3 nM

Structure (SMILES): CC1(C)Oc2cc3oc(=O)ccc3cc2C[C@@H]1O [DOH, decursinol]
number of subjects with analyte detected in urine [1]: all subjects
urine mean concentration ([1]; all subjects): 289 nmol/L
AUC0–48h, h nmol/L, Mean (SD) [2]: 81272 (6829) h nmol/L
T max, h, median (range) [2]: 4 (3–8) h
Cmax [2]: 5640 nM
